Here are results for 20 compounds from paper PMC10222270, “Natural Product-Based Screening for Lead Compounds Targeting SARS CoV-2 M^pro” (Pharmaceuticals, 2023).

Where “and” joins values, the source holds several entries; their conditions need not be identical. Equal entries are not always repeated. Structures can show the parent of a compound that is named as a salt. Where two headings read alike, the source gives them in different places.

Assay [1] deals with T1, SARS CoV-2 M^pro (Severe acute respiratory syndrome coronavirus 2, UniProt P0DTD1).
T1 construct: The main protease (M^pro) is a part of the polyprotein chain, also named 3C-like protease; SUMO (cleaved yes); His; made in house; host or cells: Escherichia coli BL21(DE3)
Kind of assay: biochemical. Type of assay: biochemical. The settings on record: for inhibition at 80 µM: read-out: Inhibition%(80μM); for result of retest over a concentration range: gradient concentrations.

The target of assay [2] is T1, SARS CoV-2 M^pro. Nature of the assay: nanoDSF thermal shift assay (TSA). The conditions noted are these: for △T: versus M^pro+DMSO; for Kd: x-intercept of linear regression of ΔTm on log10 of compound concentration, read-out: Kobs. Format: binding.
Assay [3] addresses T1, SARS CoV-2 M^pro. Nature of the assay: Surface plasmon resonance (SPR) binding to biotinylated M^pro. The conditions noted are these: for binding trend to M^pro: SPR, single concentration 200 μM. (SPR reads the build-up and loss of mass on a sensor chip optically.)
Setting [4] is: 0.02%(v/v) Triton X−100 in buffer.

Regarding `C[C@@H]1CC[C@]2(C(=O)O)CC[C@]3(C)C(=CC[C@@H]4[C@@]5(C)CC[C@H](O[C@@H]6OC[C@H](O)[C@H](O)[C@H]6O)C(C)(C)[C@@H]5CC[C@]43C)[C@@H]2[C@]1(C)O` [Ziyuglycoside II], the “Inhibition%(80μM)” value at SARS CoV-2 M^pro [1] was 70.21% and 74.61% and 47.27%.

The inhibition is the change of the read-out against control, counted positive when it falls. On to `O=c1cc(-c2ccccc2)oc2cc(O)c(O)c(O)c12` [baicalein, Baicalein, reference compound], for which the figures for the “Tm of M^pro” value on SARS CoV-2 M^pro [2] (compound 3.125 μM), at SARS CoV-2 M^pro [2] (compound 50 μM) and at SARS CoV-2 M^pro [2] (compound 200 μM) were 55.2 °C, 56.6 °C and 57.0 °C, respectively. The “△T” value at SARS CoV-2 M^pro [2] (compound 3.125 μM) was 0.3 °C; on SARS CoV-2 M^pro [2] (compound 50 μM), 1.7 °C; on SARS CoV-2 M^pro [2] (compound 200 μM), 2.1 °C. The inhibition at 80 µM at SARS CoV-2 M^pro [1] (80 μM compound, first value column of Table S2) amounted to 99.9%; on SARS CoV-2 M^pro [1] (80 μM compound, second value column of Table S2) it was 101%; at SARS CoV-2 M^pro [1] (80 μM compound, third value column of Table S2), 98.7%.

A word on the IC50: it is the concentration that inhibits the measured activity by half. Low readings indicate inhibition by little substance, high ones a need for much substance. As to `CC(C)CCCC(C)C1CCC2C3CC=C4CC(OS(=O)(=O)O)CCC4(C)C3CCC12C` (centres unmarked) [cholesteryl sodium sulfate, Cholesteryl sodium sulfate], at SARS CoV-2 M^pro [2] (compound 3.125 μM), the “Tm of M^pro” value came out at 55.0 °C and the “△T” value is 0.1 °C. In addition, on SARS CoV-2 M^pro [2] (compound 50 μM), the “Tm of M^pro” value turned out to be 54.1 °C and the “△T” value was -0.8 °C. For the same compound, on SARS CoV-2 M^pro [2] (compound 200 μM), the “Tm of M^pro” value is 48.9 °C and the “△T” value was -6.0 °C. For the same compound, at SARS CoV-2 M^pro [2], the Kd amounted to 7600 nM. Besides, on SARS CoV-2 M^pro [1], the “Inhibition%(80μM)” value is 100.30% and 100.48%; the inhibition at 80 µM was 100%. The compound further gave an IC50 at SARS CoV-2 M^pro [1] (Without Triton X−100) of 2740 ± 234 nM.

In the case of `CC(C)=CCC/C(C)=C/Cc1cc(-c2coc3cc(O)ccc3c2=O)ccc1O` [corylifol A, Corylifol A], on SARS CoV-2 M^pro [1], the “Inhibition%(80μM)” value is 100.01% and 99.99%; the “result of retest over a concentration range” value is given as “unable to generate a whole curve within the concentration range”; the inhibition at 80 µM came out at 100%.

`COc1cc2ccc(=O)oc2c(O)c1O` [fraxetin, Fraxetin]: at SARS CoV-2 M^pro [3], the “binding trend to M^pro” value was “no binding trends”. Besides, the “Inhibition%(80μM)” value on SARS CoV-2 M^pro [1] was 97.85% and 96.97%. The IC50 is 1300 ± 208 nM against SARS CoV-2 M^pro [1] (setting [4]) and 2490 ± 178 nM against SARS CoV-2 M^pro [1] (Without Triton X−100). The inhibition at 80 µM at SARS CoV-2 M^pro [1] turned out to be 96.8%.

With `CCCCCC/C=C\CCCCCCCc1cccc(O)c1C(=O)O` [ginkgolic acid C15:1, Ginkgolic Acid C15:1], the Kd at SARS CoV-2 M^pro [3] (SPR multi-cycle mode, steady-state affinity, PBST, 7% DMSO) was 227000 nM. For the same compound, at SARS CoV-2 M^pro [1], the “Inhibition%(80μM)” value was 107.06% and the inhibition at 80 µM turned out to be 104%. Besides, at SARS CoV-2 M^pro [1] (Without Triton X−100), the IC50 turned out to be 9350 ± 531 nM.

Consider `Oc1cc2c(cc1O)[C@@H]1c3ccc(O)c(O)c3OC[C@]1(O)C2` [hematoxylin, Hematoxylin], for which, on SARS CoV-2 M^pro [1], the “Inhibition%(80μM)” value was 103.56% and 103.03%; the inhibition at 80 µM worked out at 104%.

`CC(=O)OCCc1ccc(O)c(O)c1` [hydroxytyrosol acetate, Hydroxytyrosol Acetate]: the “binding trend to M^pro” value at SARS CoV-2 M^pro [3] is “no binding trends”. Moreover, on SARS CoV-2 M^pro [1], the “Inhibition%(80μM)” value is 103.09% and 102.91%; the inhibition at 80 µM stood at 103%. The compound further came in with an IC50 at SARS CoV-2 M^pro [1] (setting [4]) of 3780 ± 453 nM. The compound also showed an IC50 at SARS CoV-2 M^pro [1] (Without Triton X−100) of 3850 ± 576 nM.

Take `Cc1c(=O)c(=O)c2c3c[nH]c4c(C)c(=O)c(=O)c(c5c[nH]c1c52)c43` [melanin, Melanin]: the “Tm of M^pro” value on SARS CoV-2 M^pro [2] (compound 3.125 μM) was determined as 55.0 °C; at SARS CoV-2 M^pro [2] (compound 50 μM), 54.9 °C; on SARS CoV-2 M^pro [2] (compound 200 μM), 54.4 °C. For the same compound, the “△T” value on SARS CoV-2 M^pro [2] (compound 3.125 μM) is 0.1 °C; on SARS CoV-2 M^pro [2] (compound 50 μM), 0.0 °C; at SARS CoV-2 M^pro [2] (compound 200 μM), -0.5 °C. In addition, the Kd at SARS CoV-2 M^pro [2] came to 11600 nM. The “Inhibition%(80μM)” value on SARS CoV-2 M^pro [1] was 96.84% and 96.92%. This compound had an IC50 on SARS CoV-2 M^pro [1] (Without Triton X−100) of 7370 ± 368 nM. In addition, the inhibition at 80 µM at SARS CoV-2 M^pro [1] was found to be 95.8%.

Take `C[n+]1cc2c3c(ccc2c2ccc4cc5c(cc4c21)OCO5)OCO3` [sanguinarine, Sanguinarine]: at SARS CoV-2 M^pro [1], the “Inhibition%(80μM)” value was 107.86% and 107.40% and 108.34%; the “result of retest over a concentration range” value is given as “no inhibitory effect on M^pro when retested”.

Take `COc1cc(C(=S)N2CCOCC2)ccc1O` [vanitiolide, Vanitiolide]: the “binding trend to M^pro” value at SARS CoV-2 M^pro [3] is listed as “no binding trends”. At SARS CoV-2 M^pro [1], the “Inhibition%(80μM)” value was 99.16% and 98.95%; the inhibition at 80 µM worked out at 99.1%. The same compound showed an IC50 against SARS CoV-2 M^pro [1] (setting [4]) of 1420 ± 76 nM. In addition, it took 2840 ± 225 nM to reach half-maximal inhibition on SARS CoV-2 M^pro [1] (Without Triton X−100) (IC50).

For the compound `COc1cc(O)c2c(c1)oc(=O)c1c3cc(O)c(O)cc3oc21` [wedelolactone, Wedelolactone], the “Tm of M^pro” value at SARS CoV-2 M^pro [2] (compound 3.125 μM) turned out to be 55.2 °C; at SARS CoV-2 M^pro [2] (compound 50 μM), 55.8 °C; on SARS CoV-2 M^pro [2] (compound 200 μM), 56.1 °C. Also, the “△T” value came out at 0.3 °C at SARS CoV-2 M^pro [2] (compound 3.125 μM), 0.9 °C at SARS CoV-2 M^pro [2] (compound 50 μM) and 1.2 °C on SARS CoV-2 M^pro [2] (compound 200 μM). In addition, the Kd on SARS CoV-2 M^pro [2] is 977 nM. At SARS CoV-2 M^pro [1], the “Inhibition%(80μM)” value was 101.88% and 102.36%. Further, the IC50 on SARS CoV-2 M^pro [1] (setting [4]) worked out at 2510 ± 276 nM; against SARS CoV-2 M^pro [1] (Without Triton X−100), 1000 ± 238 nM. In addition, the inhibition at 80 µM on SARS CoV-2 M^pro [1] amounted to 102%.

On to `CC(C)=CCC(OC(=O)C=C(C)C)C1=CC(=O)c2c(O)ccc(O)c2C1=O` (stereo not drawn) [β,β-dimethylacrylshikonin], for which the “Inhibition%(80μM)” value on SARS CoV-2 M^pro [1] is 75.31% and 77.34% and 77.10%.

`CC(C)=CC[C@H](OC(=O)C=C(C)C)C1=CC(=O)c2c(O)ccc(O)c2C1=O` [β,β–dimethylacrylalkannin, β,β-Dimethylacrylalkannin]: on SARS CoV-2 M^pro [2] (compound 50 μM), the “Tm of M^pro” value is 57.7 °C and the “△T” value is 2.8 °C. Besides, at SARS CoV-2 M^pro [2] (compound 200 μM), the “Tm of M^pro” value is 58.3 °C and the “△T” value worked out at 3.4 °C. Moreover, at SARS CoV-2 M^pro [2], the Kd worked out at 1900 nM. Further, on SARS CoV-2 M^pro [1], the “Inhibition%(80μM)” value is 99.09% and 97.96%; the inhibition at 80 µM amounted to 100%. On SARS CoV-2 M^pro [1] (setting [4]), the IC50 came out at 2890 ± 185 nM. Also, at SARS CoV-2 M^pro [1] (Without Triton X−100), the IC50 was found to be 2730 ± 308 nM.

For the compound (-)-Epigallocatechin, the “Inhibition%(80μM)” value at SARS CoV-2 M^pro [1] is 78.95% and 75.28% and 77.55%.

Turning to Echinacoside, the “Inhibition%(80μM)” value at SARS CoV-2 M^pro [1] was 93.62% and 90.06% and 89.84%.

On to Forsythoside B, for which the “Inhibition%(80μM)” value at SARS CoV-2 M^pro [1] is 92.91% and 95.11% and 93.46%.

With Harmol, the “Inhibition%(80μM)” value at SARS CoV-2 M^pro [1] was 74.50% and 81.33% and 79.31%.

On to Maleimide, for which the “Inhibition%(80μM)” value on SARS CoV-2 M^pro [1] was 103.98% and 104.37% and 103.27%.

For Tubuloside A, on SARS CoV-2 M^pro [1], the “Inhibition%(80μM)” value is 87.62% and 90.37% and 86.87%.
